From patent US6660910B1, “Selection marker” (Syngenta Mogen B.V., priority 1997, dated 2003)

Tests used:
[1] = test system: root segments of Arabidopsis thaliana cv. C24; test: Arabidopsis root transformation with selection on cyanamide or kanamycin; type: cell-based; settings: for % Shoots rooting / Nr. of plants (shoots developed into plants and able to root) / Percentage of GUS expressing plants (% of plants staining blue): pMOG 1156
Method: Described below is the method used for transformation of root segments of Arabidopsis thaliana cv. C24 using Agrobacterium tumefaciens. The binary vectors for this transformation method are identical to those described above.
Six mg of Arabidopsis seeds were germinated in a flask containing liquid Germination Medium (GM) under 16 h light period (1700 lux) at 24° C. and a 8 h dark period at 21° C. at 80 rpm. (The contents of various media can be found in Table 4). Roots of 9 days old seedlings were isolated in a sterile petridish and collected in a drop of Germination Medium (GM). Roots were cut in segments of approximately 3-5 mm and approximately 100 explants were spread evenly on a nylon membrane (O 8 cm) which was placed on plates containing Callus Inducing Medium (CIM). The plates were incubated 3 days under the same conditions as described above.
The Agrobacterium strain used in this study harbored a rifampicin selection marker in a C 58 chromosomal background. The construction of the helper strain MOG101 is described by Hood et al. (1993).
Agrobacteria were grown overnight in LB medium with antibiotics (rifampicin 20 mg/l, kanamycin 100 mg/l). The overnight culture was diluted 1:10 in LB without antibiotics and grown for approximately 3 hours. Bacterial suspensions were centrifuged at 1600×g for 15 minutes at room temperature. Bacteria were resuspended in GM and adjusted to OD600=0.1 and used for cocultivation.
The membrane containing approximately 100 explants was incubated for 2 minutes with the Agrobacterium suspension and dried on sterile filter paper to remove excess of bacteria. The membrane with explants are cultured for 48 h on CIM plates. After rinsing the membrane and explants with liquid GM these were incubated on Shoot Induction Medium (SIM) plates containing several concentrations of cyanamide or kanamycin. After 5 days the membrane with the explants was transferred to the same medium (SIM) for subculture. The second subculture was after 2 weeks. Approximately four weeks after cocultivation 60 shoots per cyanamide concentration were excised and placed on plates with Shoot Elongation Medium (SEM) containing 30 mg/l cyanamide. Shoots which were able to root are tested on their transgenic character by testing leaflets and flowers for expression of the gus gene using a histochemical GUS assay.
Three experiments were performed. Shoots obtained from Exp. 98-8 and 98-11 were transferred to rooting medium (SEM) containing 30 mg/litre cyanamide. Shoots obtained from Exp. 98-13 were transferred to rooting medium containing the same concentration as the selection medium (SIM), for results see Table 4a. The shoots obtained from the kanamycin selection (50 mg/litre) were transferred to rooting medium containing 25 mg/litre Kanamycin.

[2] = test system: regenerable embryogenic suspension of Grand nain; test: Kill curves in banana (Musa); type: cell-based; settings: for % Live cells as assessed by FDA: 21 days; for % Callus Growth: approximate visual estimate
Method: To test the potential of cyanamide as a selection agent for transformation in banana two kill curves were set up with a regenerable embryogenic suspension of Grand nain 6 day old embryogenic suspension (Ed6b) cultures, subbed routinely in M2 2,4D liquid, containing 4.32 g/l MS salts, 45 g/l sucrose, standard 1×concn. MS vitamins, 100mg/l glutamine, 100 mg/l myo-inositol, 100 mg/l biotin, 100mg/l malt extract at pH 5.3 and added after autoclaving 1.2 mg/l 2,4-D and 0.8 mg/l picloram.
Cultures were sieved (>250μ, <710μ) and aliquots of approx 50 μl sieved culture in 300μl volume of liquid were pipetted onto two kill curve media as detailed below (3 reps per plate). Culture growth and survival were monitored over the following 3 weeks and cell survival assessed after 21 days via FDA staining.
Kill Curve Medium A : M2/MS/1.0 2,4-D (as M2/MS/2,4-D except only 1.0 mg/l 2,4-D, no picloram and +2.25 g/l gelrite): this medium promotes the rapid division and growth of embryogenic callus, but not embryos. Kill Curve Medium B : M2/SH/0.5Pic, 0.5 2,4-D (as M2/MS/2,4-D except only 0.5 mg/l 2,4-D and 0.5 mg/l picloram, SH salts (4.32 g/1) instead of MS, +2.25 g/l gelrite): This medium promotes the early development of embryos which can be matured and germinated by transfer to alternative media.
Cyanamide was added to both media types, after autoclaving, to concentrations of 0,20,30,50,75,100,150 mg/l.

[3] = Experiment 98-8, selection cyanamide 20 mg/litre, rooting medium 30 mg/litre cyanamide
[4] = Experiment 98-8, selection cyanamide 30 mg/litre, rooting medium 30 mg/litre cyanamide
[5] = Experiment 98-8, selection cyanamide 40 mg/litre, rooting medium 30 mg/litre cyanamide
[6] = Experiment 98-8, selection cyanamide 60 mg/litre, rooting medium 30 mg/litre cyanamide
[7] = Experiment 98-8, selection cyanamide 80 mg/litre, rooting medium 30 mg/litre cyanamide
[8] = Experiment 98-11, selection cyanamide 20 mg/litre, rooting medium 30 mg/litre cyanamide
[9] = Experiment 98-11, selection cyanamide 30 mg/litre, rooting medium 30 mg/litre cyanamide
[10] = Experiment 98-11, selection cyanamide 40 mg/litre, rooting medium 30 mg/litre cyanamide
[11] = Experiment 98-11, selection cyanamide 50 mg/litre, rooting medium 30 mg/litre cyanamide
[12] = Experiment 98-11, selection cyanamide 80 mg/litre, rooting medium 30 mg/litre cyanamide
[13] = Experiment 98-13, selection cyanamide 20 mg/litre, rooting medium same concentration as selection medium
[14] = Experiment 98-13, selection cyanamide 30 mg/litre, rooting medium same concentration as selection medium
[15] = Experiment 98-13, selection cyanamide 50 mg/litre, rooting medium same concentration as selection medium
[16] = Experiment 98-13, selection cyanamide 60 mg/litre, rooting medium same concentration as selection medium
[17] = Experiment 98-13, selection cyanamide 80 mg/litre, rooting medium same concentration as selection medium
[18] = Medium M2/MS/2,4-D, cyanamide 20 mg/l
[19] = Medium M2/MS/2,4-D, cyanamide 30 mg/l
[20] = Medium M2/MS/2,4-D, cyanamide 50 mg/l
[21] = Medium M2/MS/2,4-D, cyanamide 75 mg/l
[22] = Medium M2/MS/2,4-D, cyanamide 100 mg/l
[23] = Medium M2/MS/2,4-D, cyanamide 150 mg/l
[24] = Medium M2/SH/0.5Pic +0.5 2,4-D, cyanamide 20 mg/l
[25] = Medium M2/SH/0.5Pic +0.5 2,4-D, cyanamide 30 mg/l
[26] = Medium M2/SH/0.5Pic +0.5 2,4-D, cyanamide 50 mg/l
[27] = Medium M2/SH/0.5Pic +0.5 2,4-D, cyanamide 75 mg/l
[28] = Medium M2/SH/0.5Pic +0.5 2,4-D, cyanamide 150 mg/l

## N#CN [Cyanamide]
[1]; PMOG 1156, lower cyanamide concentrations
  Speed of shoot regeneration compared with kanamycin: regeneration of shoots was faster than with kanamycin
[1]; explants transformed with pMOG 410 (without the cah gene), 20 mg/litre cyanamide
  Regeneration of root explants: already enough to prevent regeneration
[1]; explants transformed with pMOG 410, 50 mg/litre cyanamide and higher
  Viability of root explants: not viable and turned completely brown
[1]; explants transformed with pMOG 410, 20 till 40 mg/litre cyanamide
  Callus development of root explants: some callus development was observed
[1]; explants transformed with the cah gene (PMOG 1156), all cyanamide concentrations, even 80 mg/litre
  Regeneration of root explants: able to regenerate at all cyanamide concentrations
[1]; [3]
  % Shoots rooting: 0%
  Nr. of plants (shoots developed into plants and able to root): 0
[1]; [4]
  % Shoots rooting: 6.3%
  Nr. of plants (shoots developed into plants and able to root): 4
[1]; [5]
  % Shoots rooting: 8.2%
  Nr. of plants (shoots developed into plants and able to root): 5
[1]; [6]
  % Shoots rooting: 8.2%
  Nr. of plants (shoots developed into plants and able to root): 5
[1]; [7]
  % Shoots rooting: 13.8%
  Nr. of plants (shoots developed into plants and able to root): 9
[1]; [8]
  % Shoots rooting: 1.7%
  Nr. of plants (shoots developed into plants and able to root): 1
[1]; [9]
  % Shoots rooting: 3.2%
  Nr. of plants (shoots developed into plants and able to root): 2
[1]; [10]
  % Shoots rooting: 4.5%
  Nr. of plants (shoots developed into plants and able to root): 3
[1]; [11]
  % Shoots rooting: 8.1%
  Nr. of plants (shoots developed into plants and able to root): 5
[1]; [12]
  % Shoots rooting: 15.6%
  Nr. of plants (shoots developed into plants and able to root): 10
[1]; [13]
  % Shoots rooting: 4.8%
  Nr. of plants (shoots developed into plants and able to root): 3
[1]; [14]
  % Shoots rooting: 14.5%
  Nr. of plants (shoots developed into plants and able to root): 9
[1]; Experiment 98-13, selection cyanamide 40 mg/litre, rooting medium same concentration as selection medium
  Nr. of plants (shoots developed into plants and able to root): 1
[1]; [15]
  % Shoots rooting: 0%
  Nr. of plants (shoots developed into plants and able to root): 0
[1]; [16]
  % Shoots rooting: 6.O
  Nr. of plants (shoots developed into plants and able to root): 4
[1]; [17]
  % Shoots rooting: 11.4%
  Nr. of plants (shoots developed into plants and able to root): 8
[1]; treatment cyanamide 20 mg/litre, C30 in rooting medium
  Percentage of GUS expressing plants (% of plants staining blue): 0^1%
[1]; treatment cyanamide 20 mg/litre, rooting medium same conc. as treatment
  Percentage of GUS expressing plants (% of plants staining blue): 0%
[1]; treatment cyanamide 30 mg/litre, C30 in rooting medium
  Percentage of GUS expressing plants (% of plants staining blue): 75-100%
[1]; treatment cyanamide 30 mg/litre, rooting medium same conc. as treatment
  Percentage of GUS expressing plants (% of plants staining blue): 78%
[1]; treatment cyanamide 40 mg/litre, C30 in rooting medium
  Percentage of GUS expressing plants (% of plants staining blue): 40-100%
[1]; treatment cyanamide 40 mg/litre, rooting medium same conc. as treatment
  Percentage of GUS expressing plants (% of plants staining blue): 100%
[1]; treatment cyanamide 50 mg/litre, C30 in rooting medium
  Percentage of GUS expressing plants (% of plants staining blue): 80%
[1]; treatment cyanamide 60 mg/litre, C30 in rooting medium
  Percentage of GUS expressing plants (% of plants staining blue): 80%
[1]; treatment cyanamide 60 mg/litre, rooting medium same conc. as treatment
  Percentage of GUS expressing plants (% of plants staining blue): 100%
[1]; treatment cyanamide 80 mg/litre, C30 in rooting medium
  Percentage of GUS expressing plants (% of plants staining blue): 67-90%
[1]; treatment cyanamide 80 mg/litre, rooting medium same conc. as treatment
  Percentage of GUS expressing plants (% of plants staining blue): 100%
[2]
  Concentration up to which there is no significant visual browning of cultures and release of phenolics: > 75 mg/L
[2]; 20 mg/l, read-out: Inhibition of the growth of embryogenic callus
  inhibition at 20 µg/mL: 40 to 50%
[2]; [18]
  % Live cells as assessed by FDA: 60%
  % Callus Growth: +30%
[2]; [19]
  % Live cells as assessed by FDA: 50%
  % Callus Growth: +20%
[2]; [20]
  % Live cells as assessed by FDA: 20%
  % Callus Growth: 0%
[2]; [21]
  % Live cells as assessed by FDA: 10%
  % Callus Growth: 0%
[2]; [22]
  % Live cells as assessed by FDA: 10%
  % Callus Growth: 0%
[2]; [23]
  % Live cells as assessed by FDA: 0%
  % Callus Growth: 0%
[2]; [24]
  Embryos Formed (average): 0
  % Live cells as assessed by FDA: 50%
[2]; [25]
  Embryos Formed (average): 0
  % Live cells as assessed by FDA: 40%
[2]; [26]
  Embryos Formed (average): 0
  % Live cells as assessed by FDA: 30%
[2]; [27]
  Embryos Formed (average): 0
  % Live cells as assessed by FDA: 20%
[2]; Medium M2/SH/0.5Pic +0.5 2,4-D, cyanamide 100 mg/l
  Embryos Formed (average): 0
[2]; [28]
  Embryos Formed (average): 0
  % Live cells as assessed by FDA: 0%
[2]; lowest concentration tested (20 mg/l)
  Embryogenesis: totally inhibited
